{
  "source": "patent US11814372B2",
  "about": "“Agonists of EPHA and their uses” (CASE WESTERN RESERVE UNIVERSITY, priority 2017, dated 2023)",
  "key": {"EphA2": {"target": "EphA2 (Homo sapiens, UniProt P29317)", "sequence (P29317 24-976)": "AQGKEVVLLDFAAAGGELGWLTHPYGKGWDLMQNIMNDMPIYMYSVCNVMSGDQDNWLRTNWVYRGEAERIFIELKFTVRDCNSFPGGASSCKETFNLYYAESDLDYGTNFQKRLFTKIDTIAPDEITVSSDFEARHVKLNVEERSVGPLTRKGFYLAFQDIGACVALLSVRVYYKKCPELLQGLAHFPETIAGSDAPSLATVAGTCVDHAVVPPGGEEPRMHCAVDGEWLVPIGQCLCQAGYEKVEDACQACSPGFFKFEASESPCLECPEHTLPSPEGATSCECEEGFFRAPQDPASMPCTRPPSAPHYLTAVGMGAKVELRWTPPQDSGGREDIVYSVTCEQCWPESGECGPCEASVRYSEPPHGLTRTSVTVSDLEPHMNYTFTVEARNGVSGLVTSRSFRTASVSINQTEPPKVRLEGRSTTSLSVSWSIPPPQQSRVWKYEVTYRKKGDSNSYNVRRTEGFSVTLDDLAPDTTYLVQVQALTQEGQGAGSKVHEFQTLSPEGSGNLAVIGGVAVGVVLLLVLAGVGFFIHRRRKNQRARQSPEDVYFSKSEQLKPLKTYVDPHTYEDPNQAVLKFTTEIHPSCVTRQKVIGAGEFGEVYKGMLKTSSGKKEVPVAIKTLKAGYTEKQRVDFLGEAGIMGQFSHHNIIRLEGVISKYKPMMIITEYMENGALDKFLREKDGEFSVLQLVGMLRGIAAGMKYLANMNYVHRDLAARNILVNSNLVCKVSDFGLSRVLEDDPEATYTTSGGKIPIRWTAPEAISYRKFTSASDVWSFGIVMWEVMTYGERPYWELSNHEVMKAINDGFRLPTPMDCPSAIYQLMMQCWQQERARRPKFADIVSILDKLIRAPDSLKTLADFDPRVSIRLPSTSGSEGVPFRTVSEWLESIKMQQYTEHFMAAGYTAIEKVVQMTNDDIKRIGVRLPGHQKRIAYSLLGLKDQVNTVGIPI", "assay": "EphA2 activation in MDA-231-A2 cells (pEphA/B immunoblot, EphA2 immunoprecipitation)", "format": "cell-based", "design": "expressed in transfected cells; host or cells: MDA-MB-231 (MDA-231-A2), HEK 293 (HEK 293-A2), A172 (A172-A2), U373 (U373-A2)", "description": "Cells were plated in 24-well dishes at a density of 100,000 cells/well and grown for 24 hours prior to stimulation with appropriate compounds and ephrins for the given amounts of time. Compounds were prepared in DMSO at 500 times the final concentrations and 0.2% DMSO was used as vehicle control. Following treatment, cells were lysed directly in SDS Gel Loading Buffer and immunoblotted as described previously. Immunoprecipitation and immunofluorescence staining was performed as described. For immunoprecipitation, 300,000 cells/well were plated in 6-well dishes and lysed in modified RIPA Buffer (20 mM Tris-HCl pH 7.4, 20 mM NaF, 150 mM NaCl, 10% glycerol, 0.1% SDS, 0.5% DCA, 2 mM EDTA, 1% Triton X-100) following treatment. Either […] of ephrin-A1-Fc, or […] of EphA2 mouse monoclonal antibody (Clone D7, Millipore) were used, and mouse IgG was used as a negative control for EphA2 IP. To identify small molecule agonists for EphA2, we took a structure-based in silico screening approach. […] This notion was confirmed recently by determination of the crystal structure of the EphA2/ephrin-A1 complex (FIG. 1B). The size falls in the range of common drugs, making EphA2 LBD a desirable target for drug discovery. Toward this end, we initiated in silico screening to search for small molecules that interact favorably with the ligand-binding pocket of EphA2 derived from molecular modeling before the crystal structure became available. Multiple conformations for each structure were generated with OMEGA (OpenEye) and each conformation was docked individually using DOCK. Our initial screening of over 750,000 compounds identified a number of small molecules that could potentially interact with the ligand-binding pocket. The commercially available top-scoring compounds were screened for their ability to induce EphA2 activation in MDAMB-231 breast cancer cells. Because MDA-MB-231 cells express endogenous EphA2 as well as other Eph receptors, including EphA1, we overexpressed EphA2 in order to minimize the contribution from other Eph receptors in our analysis. […] Total cell lysates were probed with a previously described antibody that recognizes the activated Eph receptors."}, "PC-3 cells": {"tested_on": "PC-3 cells", "assay": "Cell rounding analysis", "format": "cell-based, human", "conditions": "50 µM, 30 or 60 min", "excerpt": "As we first reported in 2000, EphA2 activation on PC-3 cells by ephrin-A1 induced rapid cell rounding, a phenomenon that is correlated with inhibition of integrin function."}, "[1]": {"conditions": "MDA-231-A2 cells, single 50 μM dose"}},
  "data": [
    {"smiles": "COc1cc2nc(N3CCN(C(=O)C4COc5ccccc5O4)CC3)nc(N)c2cc1OC", "note": "(stereo not shown) [doxazosin]", "values": [
      {"measurement": "EphA2 activation after phenoxybenzamine pretreatment versus no pretreatment", "setting": "EphA2; MDA-231-A2 cells pretreated with 1 μM phenoxybenzamine, then 1 hour treatment", "value": "No difference in EphA2 activation"},
      {"measurement": "EphA2 activation, screening of top-scoring compounds", "setting": "EphA2; MDA-231-A2 cells, compounds at 50 µM, 30 minutes", "value": "activated EphA2 to the greatest extent"},
      {"measurement": "EphA2 level after treatment", "setting": "EphA2; MDA-231-A2 cells, high doses", "value": "degradation of EphA2"},
      {"measurement": "EphA2 activation, dose-response", "setting": "EphA2; MDA-231-A2 cells, multiple doses, 30 minutes", "value": "dose-dependent manner"},
      {"measurement": "earliest time of significant EphA2 activation", "setting": "EphA2; [1]", "value": 5, "unit": "min"},
      {"measurement": "time of peak EphA2 activation", "setting": "EphA2; [1]", "value": "around 30 min"},
      {"measurement": "cell rounding", "setting": "PC-3 cells", "value": "caused rounding of PC-3 cells"}
    ]}
  ]
}
